Laboratory results reported in the supplement of paper PMC11451515.

Assays:
Details in all cases: 48 h
[1] = test system: NOMO1; experiment: AUC of viability dose-response curve (% viability x log10 dose units); higher = less sensitive
Summary of the method: (§1)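 Viability of medium-adapted leukemia cells was measured by CellTiter-Glo One luminescence after 48 h at 37°C with library compounds in DMSO. Doses were 11 threefold steps from 47 μM to 0.79 nM, in 1536-well plates at 500 or 1000 cells/well. Signals were normalised per plate to DMSO and cell-free wells and fitted with a four-parameter log-logistic model on log10 dose. Area under the curve was integrated by trapezoidal rule, with curves exceeding full viability scaled and failed quality-control curves removed.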

[2] = test system: P12-Ichikawa; experiment: as above
Summary of the method: as §1

[3] = test system: SEM cells; experiment: as above
Summary of the method: as §1

[4] = test system: NOMO1; experiment: cell viability relative to DMSO control; higher = less cytotoxic
Summary of the method: (§2)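 NOMO1, SEM and P12-Ichikawa leukemia cells spent at least four passages adapting to each medium before use. They were seeded at 500 cells/well (NOMO1, SEM) or 1000 cells/well (P12-Ichikawa) in 5 μl in 1536-well plates and pin-dosed with library compounds in DMSO at 11 threefold steps from 47 μM down to 0.79 nM. After 48 h at 37°C, CellTiter-Glo One luminescence was read. Viability is reported as a percentage of the DMSO wells on each plate, with cell-free wells as background.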

[5] = test system: P12-Ichikawa; experiment: as above
Summary of the method: as §2

[6] = test system: SEM cells; experiment: as above
Summary of the method: as §2

[7] = RPMI 5 mM glucose + 10% dialyzed FBS
[8] = HPLM + 10% dialyzed FBS, 0.000781 µM
[9] = HPLM + 10% dialyzed FBS, 0.00234 µM
[10] = HPLM + 10% dialyzed FBS, 0.00702 µM
[11] = HPLM + 10% dialyzed FBS, 0.0211 µM
[12] = HPLM + 10% dialyzed FBS, 0.0632 µM
[13] = HPLM + 10% dialyzed FBS, 0.19 µM
[14] = HPLM + 10% dialyzed FBS, 0.569 µM
[15] = HPLM + 10% dialyzed FBS, 1.71 µM
[16] = HPLM + 10% dialyzed FBS, 5.12 µM
[17] = HPLM + 10% dialyzed FBS, 15.4 µM
[18] = HPLM + 10% dialyzed FBS, 46.1 µM
[19] = RPMI 5 mM glucose + 10% FBS, 0.000781 µM
[20] = RPMI 5 mM glucose + 10% FBS, 0.00234 µM
[21] = RPMI 5 mM glucose + 10% FBS, 0.00702 µM
[22] = RPMI 5 mM glucose + 10% FBS, 0.0211 µM
[23] = RPMI 5 mM glucose + 10% FBS, 0.0632 µM
[24] = RPMI 5 mM glucose + 10% FBS, 0.19 µM
[25] = RPMI 5 mM glucose + 10% FBS, 0.569 µM
[26] = RPMI 5 mM glucose + 10% FBS, 1.71 µM
[27] = RPMI 5 mM glucose + 10% FBS, 5.12 µM
[28] = RPMI 5 mM glucose + 10% FBS, 15.4 µM
[29] = RPMI 5 mM glucose + 10% FBS, 46.1 µM
[30] = RPMI 5 mM glucose + 10% dialyzed FBS, 0.000781 µM
[31] = RPMI 5 mM glucose + 10% dialyzed FBS, 0.00234 µM
[32] = RPMI 5 mM glucose + 10% dialyzed FBS, 0.00702 µM
[33] = RPMI 5 mM glucose + 10% dialyzed FBS, 0.0211 µM
[34] = RPMI 5 mM glucose + 10% dialyzed FBS, 0.0632 µM
[35] = RPMI 5 mM glucose + 10% dialyzed FBS, 0.19 µM
[36] = RPMI 5 mM glucose + 10% dialyzed FBS, 0.569 µM
[37] = RPMI 5 mM glucose + 10% dialyzed FBS, 1.71 µM
[38] = RPMI 5 mM glucose + 10% dialyzed FBS, 5.12 µM
[39] = RPMI 5 mM glucose + 10% dialyzed FBS, 15.4 µM
[40] = RPMI 5 mM glucose + 10% dialyzed FBS, 46.1 µM

C[C@]12CC(=O)[C@H]3[C@@H](CC\C4=C\C(=O)\C=C/[C@]34C)[C@@H]1CC[C@]2(O)C(=O)CO
AUC of viability dose-response curve ([1]; HPLM + 10% dialyzed FBS): 472 | AUC of viability dose-response curve ([1]; RPMI 5 mM glucose + 10% FBS): 461 | AUC of viability dose-response curve [1, 7]: 471 | AUC of viability dose-response curve ([2]; HPLM + 10% dialyzed FBS): 458 | AUC of viability dose-response curve ([2]; RPMI 5 mM glucose + 10% FBS): 461 | AUC of viability dose-response curve [2, 7]: 438 | AUC of viability dose-response curve ([3]; HPLM + 10% dialyzed FBS): 470 | AUC of viability dose-response curve ([3]; RPMI 5 mM glucose + 10% FBS): 457 | AUC of viability dose-response curve [3, 7]: 469

N=C1N[C@H]2[C@H](CS[C@H]2CCCCC(=O)O)N1
cell viability [4, 8]: 86.7% | cell viability [4, 9]: 115% | cell viability [4, 10]: 121% | cell viability [4, 11]: 120% | cell viability [4, 12]: 139% | cell viability [4, 13]: 126% | cell viability [4, 14]: 146% | cell viability [4, 15]: 129% | cell viability [4, 16]: 138% | cell viability [4, 17]: 118% | cell viability [4, 18]: 137% | cell viability [4, 19]: 113% | cell viability [4, 20]: 114% | cell viability [4, 21]: 110% | cell viability [4, 22]: 109% | cell viability [4, 23]: 111% | cell viability [4, 24]: 123% | cell viability [4, 25]: 107% | cell viability [4, 26]: 117% | cell viability [4, 27]: 112% | cell viability [4, 28]: 120% | cell viability [4, 29]: 110% | cell viability [4, 30]: 109% | cell viability [4, 31]: 122% | cell viability [4, 32]: 119% | cell viability [4, 33]: 132% | cell viability [4, 34]: 121% | cell viability [4, 35]: 135% | cell viability [4, 36]: 121% | cell viability [4, 37]: 131% | cell viability [4, 38]: 119% | cell viability [4, 39]: 143% | cell viability [4, 40]: 136% | cell viability [5, 8]: 108% | cell viability [5, 9]: 116% | cell viability [5, 10]: 110% | cell viability [5, 11]: 118% | cell viability [5, 12]: 124% | cell viability [5, 13]: 119% | cell viability [5, 14]: 130% | cell viability [5, 15]: 114% | cell viability [5, 16]: 123% | cell viability [5, 17]: 119% | cell viability [5, 18]: 113% | cell viability [5, 19]: 123% | cell viability [5, 20]: 130% | cell viability [5, 21]: 121% | cell viability [5, 22]: 134% | cell viability [5, 23]: 135% | cell viability [5, 24]: 131% | cell viability [5, 25]: 125% | cell viability [5, 26]: 126% | cell viability [5, 27]: 135% | cell viability [5, 28]: 126% | cell viability [5, 29]: 139% | cell viability [5, 30]: 114% | cell viability [5, 31]: 124% | cell viability [5, 32]: 111% | cell viability [5, 33]: 129% | cell viability [5, 34]: 117% | cell viability [5, 35]: 126% | cell viability [5, 36]: 121% | cell viability [5, 37]: 117% | cell viability [5, 38]: 126% | cell viability [5, 39]: 126% | cell viability [5, 40]: 116% | cell viability [6, 8]: 80.4% | cell viability [6, 9]: 109% | cell viability [6, 10]: 91.8% | cell viability [6, 11]: 97.2% | cell viability [6, 12]: 111% | cell viability [6, 13]: 108% | cell viability [6, 14]: 25.3% | cell viability [6, 15]: 112% | cell viability [6, 16]: 117% | cell viability [6, 17]: 112% | cell viability [6, 18]: 109% | cell viability [6, 19]: 87.6% | cell viability [6, 20]: 115% | cell viability [6, 21]: 108% | cell viability [6, 22]: 106% | cell viability [6, 23]: 107% | cell viability [6, 24]: 107% | cell viability [6, 25]: 15.4% | cell viability [6, 26]: 115% | cell viability [6, 27]: 110% | cell viability [6, 28]: 115% | cell viability [6, 29]: 121% | cell viability [6, 30]: 108% | cell viability [6, 31]: 105% | cell viability [6, 32]: 111% | cell viability [6, 33]: 118% | cell viability [6, 34]: 117% | cell viability [6, 35]: 101% | cell viability [6, 36]: 18.4% | cell viability [6, 37]: 121% | cell viability [6, 38]: 122% | cell viability [6, 39]: 124% | cell viability [6, 40]: 128% | AUC of viability dose-response curve ([1]; HPLM + 10% dialyzed FBS): 456 | AUC of viability dose-response curve ([1]; RPMI 5 mM glucose + 10% FBS): 473 | AUC of viability dose-response curve [1, 7]: 443 | AUC of viability dose-response curve ([2]; HPLM + 10% dialyzed FBS): 464 | AUC of viability dose-response curve ([2]; RPMI 5 mM glucose + 10% FBS): 464 | AUC of viability dose-response curve [2, 7]: 470

C=C1C(=O)OC2/C=C(/C)CC/C=C(/C)CCC12 (stereo not drawn)
AUC of viability dose-response curve ([1]; HPLM + 10% dialyzed FBS): 444 | AUC of viability dose-response curve ([1]; RPMI 5 mM glucose + 10% FBS): 463 | AUC of viability dose-response curve [1, 7]: 457 | AUC of viability dose-response curve ([2]; HPLM + 10% dialyzed FBS): 454 | AUC of viability dose-response curve ([2]; RPMI 5 mM glucose + 10% FBS): 442 | AUC of viability dose-response curve [2, 7]: 448 | AUC of viability dose-response curve ([3]; HPLM + 10% dialyzed FBS): 455 | AUC of viability dose-response curve ([3]; RPMI 5 mM glucose + 10% FBS): 449 | AUC of viability dose-response curve [3, 7]: 446
